Source: US11214578B2, “Urea/carbamates FAAH MAGL or dual FAAH/MAGL inhibitors and uses thereof” (Northeastern University, priority 2014, dated 2022)

How the values were obtained:
Format in all cases: biochemical
ΔTM rat FAAH = biological target: T1, ΔTM rat FAAH (Rattus norvegicus, UniProt P97612); test: Fluorescent assay protocol for ΔTM rat FAAH (AAMCA substrate); details: 15 min preincubation, read-out: IC50 rFAAH
T1 construct: Preparation of Transmembrane Domain-Deleted Rat FAAH (ΔTM rFAAH); made in house; host or cells: E. coli
T1 sequence (P97612 30-579 limits assumed): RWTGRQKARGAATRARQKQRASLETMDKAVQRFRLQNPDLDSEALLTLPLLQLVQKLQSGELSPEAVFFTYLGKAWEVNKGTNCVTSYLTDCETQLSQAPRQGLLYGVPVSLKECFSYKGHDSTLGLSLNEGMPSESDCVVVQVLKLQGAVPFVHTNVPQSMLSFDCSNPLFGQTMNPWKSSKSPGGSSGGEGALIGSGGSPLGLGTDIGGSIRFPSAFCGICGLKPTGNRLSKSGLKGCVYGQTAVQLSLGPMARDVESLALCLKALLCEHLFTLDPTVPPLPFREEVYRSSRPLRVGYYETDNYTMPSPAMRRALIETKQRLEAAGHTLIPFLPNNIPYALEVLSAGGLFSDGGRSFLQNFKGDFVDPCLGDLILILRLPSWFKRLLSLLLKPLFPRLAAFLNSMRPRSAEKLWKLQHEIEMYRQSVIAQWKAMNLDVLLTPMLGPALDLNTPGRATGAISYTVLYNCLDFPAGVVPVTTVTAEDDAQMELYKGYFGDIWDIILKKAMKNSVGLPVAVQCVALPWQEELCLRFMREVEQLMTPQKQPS
Protocol: Procedure was followed as described for hMAGL, except that arachidonoyl-methyl coumarin amide (AAMCA) was used as fluorigenic substrate. […] For the screening assay, 3 concentrations (1 μM, 10 μM, and 100 μM) of test compounds, 15 μg of ΔTM rFAAH and assay buffer were pre-incubated for 15 min at 25° C. […] The fluorescence reading at the 3 hour time point (linear enzyme kinetics) was used to calculate percent inhibition based on control assays without inhibitor present. All FAAH assays were performed in triplicate for each inhibitor concentration, and IC50 values determined using Prizm software (GraphPad Software, Inc.).

Human FAAH (MBPΔTMhFAAH) = biological target: T2, Human FAAH (MBPΔTMhFAAH) (Homo sapiens, UniProt O00519); test: Fluorescent assay protocol for hFAAH; details: human FAAH (MBP fusion, ΔTM), procedure as for rFAAH
T2 construct: made in house; host or cells: E. coli (pMALcE4 vector)
T2 sequence (O00519 30-579 limits assumed): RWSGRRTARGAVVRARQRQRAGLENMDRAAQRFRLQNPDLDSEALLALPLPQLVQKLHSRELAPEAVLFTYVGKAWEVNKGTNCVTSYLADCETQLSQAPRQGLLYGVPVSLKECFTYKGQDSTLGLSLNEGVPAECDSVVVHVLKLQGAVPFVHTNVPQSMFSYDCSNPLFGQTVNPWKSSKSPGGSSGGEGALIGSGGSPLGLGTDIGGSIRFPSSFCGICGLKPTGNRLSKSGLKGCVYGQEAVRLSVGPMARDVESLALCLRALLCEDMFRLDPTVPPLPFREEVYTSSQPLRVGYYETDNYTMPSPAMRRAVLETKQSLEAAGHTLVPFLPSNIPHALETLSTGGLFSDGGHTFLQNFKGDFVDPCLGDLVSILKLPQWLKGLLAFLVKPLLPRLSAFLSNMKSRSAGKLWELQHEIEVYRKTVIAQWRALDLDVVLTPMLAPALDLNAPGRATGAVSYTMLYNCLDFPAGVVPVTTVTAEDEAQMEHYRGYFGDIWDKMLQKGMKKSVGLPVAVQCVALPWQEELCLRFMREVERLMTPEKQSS
Protocol: Human FAAH without putative transmembrane domain following maltose binding protein was expressed in E. coli cells using pMALcE4 vector Alapafuja et al J. Med. Chem. (2012) 55: 10074-89.
Procedure was followed as described for hMAGL, except that arachidonoyl-methyl coumarin amide (AAMCA) was used as fluorigenic substrate. Compounds were diluted in 50:50 DMSO/assay buffer (50 mM HEPES, 1 mM EDTA, 0.1% BSA, pH 7.4) so as to have a final DMSO concentration below 8% in each reaction. For the screening assay, 3 concentrations (1 μM, 10 μM, and 100 μM) of test compounds, 15 μg of ΔTM rFAAH and assay buffer were pre-incubated for 15 min at 25° C. AAMCA (20 μM, 2×Km) was added prior to incubation at 25° C. and kinetic fluorescence reading every 20 minutes (λex=360/λem=460) for 4 hours on a BioTek Synergy HT Microplate Reader (BioTek Instruments, Winooski, Vt.). The fluorescence reading at the 3 hour time point (linear enzyme kinetics) was used to calculate percent inhibition based on control assays without inhibitor present. All FAAH assays were performed in triplicate for each inhibitor concentration, and IC50 values determined using Prizm software (GraphPad Software, Inc.).
Procedure was followed as described for rFAAH.

Rat MAGL (rMAGL) = biological target: T3, Rat MAGL (rMAGL) (Rattus norvegicus, UniProt Q8R431); test: Fluorescent assay protocol for rMAGL; details: recombinant rat MAGL, procedure as for hMAGL; read-out: IC50 rMAGL
T3 construct: made in house; host or cells: E. coli
T3 sequence (Q8R431 1-303): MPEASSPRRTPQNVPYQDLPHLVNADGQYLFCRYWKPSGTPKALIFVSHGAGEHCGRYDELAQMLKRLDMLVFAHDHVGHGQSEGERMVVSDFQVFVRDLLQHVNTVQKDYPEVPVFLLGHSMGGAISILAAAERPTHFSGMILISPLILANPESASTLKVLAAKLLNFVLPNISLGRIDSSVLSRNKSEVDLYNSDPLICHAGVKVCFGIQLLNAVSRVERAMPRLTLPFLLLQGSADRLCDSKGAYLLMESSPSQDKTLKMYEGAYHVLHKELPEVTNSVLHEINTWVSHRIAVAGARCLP
Protocol: (§1) This medium throughput assay involved a 96-well plate format in which hMAGL activity was monitored by the hydrolysis of the substrate 7-hydroxy-6-methoxy-4-methylcoumarin ester (AHMMCE) to form the fluorescent product, coumarin. […] Upon the addition of AHMMCE, the reaction was incubated at 25° C. for 120 min; fluorescence readings were taken every 15 min at 360 nm/460 nm (λexcitation/λemission) using a Synergy HT Plate Reader (Bio-Tek, Winooski, Vt.). […] External standards were used to convert relative fluorescence units to the amount of 4-methylcoumarin formed. All MAGL assays were performed in triplicate for each inhibitor concentration, and IC50 values were calculated using Prizm software (GraphPad Software, Inc., San Diego, Calif.).
Procedure was followed as described for hMAGL.

Human MAGL (hMAGL) = biological target: T4, Human MAGL (hMAGL) (Homo sapiens, UniProt Q99685); test: Fluorescent assay protocol for hMAGL (AHMMCE substrate); details: recombinant human MAGL, AHMMCE substrate, 15 min preincubation; read-out: IC50 hMAGL
T4 construct: hexahistidine; made in house; host or cells: E. coli
T4 sequence (Q99685 1-303): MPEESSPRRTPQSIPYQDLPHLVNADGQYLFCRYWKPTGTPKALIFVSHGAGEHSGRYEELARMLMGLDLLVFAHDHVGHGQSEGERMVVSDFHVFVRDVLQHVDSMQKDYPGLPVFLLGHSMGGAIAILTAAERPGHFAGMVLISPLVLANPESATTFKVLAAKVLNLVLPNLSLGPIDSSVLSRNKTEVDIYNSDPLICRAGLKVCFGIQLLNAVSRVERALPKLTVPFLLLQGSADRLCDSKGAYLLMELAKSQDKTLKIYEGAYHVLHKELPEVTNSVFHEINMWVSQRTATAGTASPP
Protocol: as §1

IC50 (ΔTM rat FAAH)	IC50 (Human FAAH (MBPΔTMhFAAH))	IC50 (Rat MAGL (rMAGL))	IC50 (Human MAGL (hMAGL))	SMILES
10 to 100 nM	10 to 100 nM	110 to 1000 nM	110 to 1000 nM	NC(=O)c1cccc(OC(=O)N2CC(OCc3ccc(Cl)cc3)C2)c1 [Example 77, 3-Carbamoylphenyl 3-(4-chlorobenzyloxy)azetidine-1-carboxylate]
> 1000 nM	> 1000 nM	> 1000 nM	> 1000 nM	N#Cc1cccc(-c2cncc(NC(=O)N3CCC(c4ccccc4)CC3)c2)c1 [Example 16, N-(5-(3-cyanophenyl)pyridin-3-yl)-4-phenylpiperidine-1-carboxamide]
10 to 100 nM	10 to 100 nM	> 1000 nM	110 to 1000 nM	O=C(Oc1cccc(C(F)(F)F)c1)N1CC(OCc2ccc(Cl)cc2)C1 [Example 75, 3-(Trifluoromethyl)phenyl 3-(4-chlorobenzyloxy)azetidine-1-carboxylate]
10 to 100 nM	10 to 100 nM	> 1000 nM	> 1000 nM	O=C1CC2(CCC(C(=O)n3cnc(Br)c3)CC2)Oc2ccccc21 (stereo not shown) [Example 34, 4′-(4-bromo-1H-imidazole-1-carbonyl)spiro[chromane-2,1′-cyclohexan]-4-one]
> 1000 nM	> 1000 nM	110 to 1000 nM	110 to 1000 nM	O=C(Nc1cccc(N2CCS(=O)(=O)CC2)c1)N1CCC(c2ccccc2)CC1 [Example 68, N-(3-(1,1-dioxidothiomorpholino)phenyl)-4-phenylpiperidine-1-carboxamide]
110 to 1000 nM	110 to 1000 nM	> 1000 nM	> 1000 nM	C[C@H]1CN(C(=O)n2cnc(-c3ccccc3)c2)CCN1Cc1cccc(-c2ccccc2)c1 [Example 21, (S)-(4-([1,1′-biphenyl]-3-ylmethyl)-3-methylpiperazin-1-yl)(4-phenyl-1H-imidazol-1-yl)methanone]
10 to 100 nM	10 to 100 nM	> 1000 nM	> 1000 nM	N#Cc1ccc(F)c(OC(=O)N2CCC(Cc3ccccc3)CC2)c1 [Example 45, 5-Cyano-2-fluorophenyl 4-benzylpiperidine-1-carboxylate]
110 to 1000 nM	110 to 1000 nM	> 1000 nM	> 1000 nM	C[C@H]1CN(Cc2cccc(Oc3ccccc3)c2)CCN1C(=O)n1cnc(Br)c1 [Example 22, (S)-(4-bromo-1H-imidazol-1-yl)(2-methyl-4-(3-phenoxybenzyl)piperazin-1-yl)methanone]
10 to 100 nM	10 to 100 nM	> 1000 nM	> 1000 nM	N#Cc1cccc(-c2cccc(NC(=O)N3CCN(Cc4ccc5ccccc5n4)CC3)c2)c1 [Example 13, N-(3′-cyano-[1,1′-biphenyl]-3-yl)-4-(quinolin-2-ylmethyl)piperazine-1-carboxamide]
10 to 100 nM	10 to 100 nM	> 1000 nM	> 1000 nM	N#Cc1cccc(OC(=O)N2CCC(=C(c3ccccc3)c3ccccc3)CC2)c1 [Example 47, 3-cyanophenyl 4-(diphenylmethylene)piperidine-1-carboxylate]
10 to 100 nM	10 to 100 nM	> 1000 nM	> 1000 nM	NC(=O)c1cccc(-c2cccc(NC(=O)N3CCN(c4ccccn4)CC3)c2)c1 [Example 9, N-(3′-carbamoyl-[1,1′-biphenyl]-3-yl)-4-(pyridin-2-yl)piperazine-1-carboxamide]
110 to 1000 nM	110 to 1000 nM	110 to 1000 nM	110 to 1000 nM	O=C(Oc1cccc(N2CCS(=O)(=O)CC2)c1)N1CCC(c2ccccc2)CC1 [Example 70, 3-(1,1-Dioxothiomorpholin-4-yl)phenyl 4-phenylpiperidine-1-carboxylate]
10 to 100 nM	10 to 100 nM	10 to 100 nM	10 to 100 nM	N#Cc1cccc(OC(=O)N2CCC(OC(c3ccc(Cl)cc3)c3cccnc3Cl)CC2)c1 (stereo not shown) [Example 53, 3-cyanophenyl 4-((4-chlorophenyl)(2-chloropyridin-3-yl)methoxy)piperidine-1-carboxylate]
10 to 100 nM	10 to 100 nM	10 to 100 nM	> 1000 nM	COc1ccc(C#N)cc1OC(=O)N1CCC(S(=O)(=O)c2ccc(Br)cc2)CC1 [Example 62, 5-Cyano-2-methoxyyphenyl 4-(4-bromophenylsulfonyl)piperidine-1-carboxylate]

SMILES	IC50 (ΔTM rat FAAH)	IC50 (Human FAAH (MBPΔTMhFAAH))	IC50 (Rat MAGL (rMAGL))	IC50 (Human MAGL (hMAGL))
N#Cc1cc(O)cc(OC(=O)N2CCN(C(c3ccccc3)c3ccccc3)CC2)c1 [Example 38, 3-cyano-5-hydroxyphenyl 4-benzhydrylpiperazine-1-carboxylate]	110 to 1000 nM	110 to 1000 nM	> 1000 nM	> 1000 nM
O=C(Oc1cccc(N2CCS(=O)(=O)CC2)c1)N1CCN(Cc2ccc3ccccc3n2)CC1 [Example 72, 3-(1,1-dioxidothiomorpholino)phenyl 4-(quinolin-2-ylmethyl)piperazine-1-carboxylate]	110 to 1000 nM	110 to 1000 nM	110 to 1000 nM	110 to 1000 nM
